How the values were obtained:
mouse trachea [1] = test: Intranasal instillation of Ad2βgal-4, X-gal staining of airways; type: in vivo; settings: for X-gal staining in the trachea: FIG. 4
Protocol: (§1) Female BALB/c mice 9-12 weeks of age were purchased from Taconic (Germantown, N.Y.). In some groups, mice were instilled intranasally with 25 μl of a solution containing EGTA (pH 7.5), followed by 25 μl of 5% sucrose in PBS containing Adβgal-4 (2×10^8 IU). In other groups, mice were co-instilled with 25 μl of a solution prepared by mixing equal volumes of a 2× (4×10^8 IU/25 μl) Ad2βgal-4 solution in 10% sucrose with 2×EGTA prior to instillation.
Cytochemical localization of Ogal expression in the trachea was observed using 5-bromo-4-chloro-3-indolyl-β-D-galactopyranoside (X-gal; Sigma). In brief, cannulated mouse lungs were fixed for 10 min by infusion of a fixing solution (2% paraformaldehyde and 0.2% glutaraldehyde in PBS). The lungs were then rinsed twice with 50 mM glycine in PBS, filled with X-gal solution, and stained overnight. Staining was stopped by transfering the samples into the fixing solution.
Trachea with staining levels were defined on a scale of 0 to 3, 0 indicating no cells staining for βgal, and a value of 3 indicating a large number of cells positive for the transgene. To evaluate the effect of EGTA concentration on AdV-mediated gene transfer in the trachea, mice were pre-treated with various concentrations of EGTA 0.5 h before AdV instillation. In some animals, AdV and EGTA were co-instilled. To exclude the possibility that any observed enhancement of expression was due to a hyperosmotic effect of the EGTA solution, a 20% mannitol solution (osmolarity similar to 0.4M EGTA) was included as a control in both the pre-treatment and co-instillation models.

AdV = test: Effect on AdV titer assessed on 293 cells; settings: concentrations up to 0.4 M
Protocol: To rule out the possibility that EGTA might enhance the activity of AdV, the effects of EGTA on AdV titer were assessed on 293 cells.

polarized NHBE cells = test: Infection with Ad2βgal-4 after pretreatment, βgal expression; type: cell-based, human; settings: cells treated with the calcium chelator
Protocol: Polarized NHBE cells were treated with Ca^2+-free medium (GIBCO) for 0.5 h and then rinsed twice with Opti-MEM (GIBCO). […] The cells were then infected by adding 200 μl of Opti-MEM containing Ad2βgal-4 or Ad2EGFP (100 moi) to the apical surface of the cultures, while 1 ml of OptiMEM was added to the outside of the insert. After 1 h, the viral suspension was removed, the cells washed twice with Opti-MEM and then 1 ml of the culture medium was added to the outside of the insert. Two days after infection, cells were assayed for βgal expression.

mouse trachea [2] = test: Intranasal instillation of Ad2βgal-4, quantitative chemiluminescent βgal assay of trachea; type: in vivo
Protocol: as §1
To quantify βgal expression, mice were sacrificed with an intraperitoneal injection of Somlethal (King Pharmaceuticals, Bristol, Tenn.) as described by Kaplan et al (1998), and samples of trachea from individual mice were homogenized in lysis buffer. βgal activity was measured with a commercial kit (Galactolight, Tropix, Bedford, Mass.). Protein concentration in the homogenate was measured using DC reagent (Bio-Rad, Hercules, Calif.). Results are expressed as relative light units (RLU) per milligram of total protein.

## O=C(O)CN(CCOCCOCCN(CC(=O)O)CC(=O)O)CC(=O)O [EGTA, Ethylene glycol bis(B-aminoethyl ether) N,N,N′,N′-tetraacetic acid]
Mouse trachea [1]; 0.4M pre-treatment group
  X-gal staining in the trachea: most consistent and highest X-gal staining
Mouse trachea [1]; treated mice vs AdV alone, 2×10^8 IU
  X-gal staining in the trachea: marked increase
Mouse trachea [1]; virus instilled 0.5 h after treatment
  gene expression in trachea, primary bronchi and small airways (X-gal staining): significantly enhanced
AdV
  effect on virus activity: no measurable effect
Polarized NHBE cells
  increase in expression from an AdV infection: ~50 fold
Mouse trachea [2]; 0.1M and 0.4M, FIG. 5B
  time between treatment and AdV instillation giving maximal enhancement of β-gal expression: 0.5 h
Mouse trachea [2]; pre-treated with 0.05 and 0.1M, FIG. 5A
  tracheal gene expression relative to co-instilling AdV with 0.05M EGTA: > 6 fold

Reference: US6465007B1, “Transgene expression in polarized cells” (Genzyme Corporation, priority 1998, dated 2002)
